Laboratory results as given in patent US6300350A, “Treatment of emphysema using RARy selective retinoid agonists” (priority 2000, dated 2001).

Legend:
experimental emphysema = assay: Alveolar repair in rat experimental emphysema, oral dosing; assay type: in vivo, rats; conditions: 1 mg/kg/PO daily for two weeks
Procedure: Three (3) weeks post injury animals were treated with vehicle (Capmul solution) or retinoids prepared in Capmul and dosed orally at 1, 3, and 10 mg/kg body weight. Animals were treated for 14 days prior to termination of study.
Dosage was at 1 mg/kg/PO daily for two weeks.

RARα = molecular target: T1, RARα (Homo sapiens, UniProt P10276); assay: Binding, RARα (ligand binding assay); conditions: Table II
T1 sequence (P10276 1-462): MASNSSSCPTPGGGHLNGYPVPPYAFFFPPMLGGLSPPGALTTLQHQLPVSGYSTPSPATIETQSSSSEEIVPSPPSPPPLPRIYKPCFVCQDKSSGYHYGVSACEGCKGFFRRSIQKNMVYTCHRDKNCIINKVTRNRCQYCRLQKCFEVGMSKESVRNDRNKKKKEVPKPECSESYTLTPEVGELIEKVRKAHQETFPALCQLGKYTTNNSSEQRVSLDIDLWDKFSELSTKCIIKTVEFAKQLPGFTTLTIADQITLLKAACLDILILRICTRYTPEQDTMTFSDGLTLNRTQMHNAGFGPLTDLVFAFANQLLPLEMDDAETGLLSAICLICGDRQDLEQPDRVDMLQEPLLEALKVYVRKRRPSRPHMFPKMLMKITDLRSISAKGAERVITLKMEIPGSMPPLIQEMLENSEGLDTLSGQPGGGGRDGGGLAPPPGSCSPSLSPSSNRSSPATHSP
Source text: (§1) The RARγ agonist selectivity of a compound can be determined by routine ligand binding assays known to one of skill in the art such as described in C. Apfel et al., Proc. Nat.

RARβ = molecular target: T2, RARβ (Homo sapiens, UniProt P10826); assay: Binding, RARβ (ligand binding assay); conditions: Table II
T2 sequence (P10826 1-455): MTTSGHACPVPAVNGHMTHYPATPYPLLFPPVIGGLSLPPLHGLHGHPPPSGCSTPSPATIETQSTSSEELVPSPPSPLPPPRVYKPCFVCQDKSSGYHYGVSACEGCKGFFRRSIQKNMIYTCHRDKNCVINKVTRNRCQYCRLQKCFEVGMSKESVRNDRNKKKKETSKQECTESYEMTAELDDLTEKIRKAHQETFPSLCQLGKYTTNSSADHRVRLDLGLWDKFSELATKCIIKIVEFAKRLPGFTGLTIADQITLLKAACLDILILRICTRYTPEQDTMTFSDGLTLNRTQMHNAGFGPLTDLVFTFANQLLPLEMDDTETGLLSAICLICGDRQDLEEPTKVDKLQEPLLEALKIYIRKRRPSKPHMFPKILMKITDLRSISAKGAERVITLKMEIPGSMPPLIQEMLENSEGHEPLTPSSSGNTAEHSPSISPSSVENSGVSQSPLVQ
Source text: as §1

[1] = test system: elastase-induced emphysema; assay: Alveolar repair in rat model of elastase-induced emphysema, intraperitoneal; assay type: in vivo, male Sprague Dawley rats; parameters: Alveolar Area: unit not given here
Procedure: Animals were divided into treatment groups of approximately eight. […] Three weeks post injury ATRA or a RAR selective agonist was dissolved in DMSO (20 mg/ml) and stored at -20 C. Fresh working stocks were prepared fresh daily by dilution in corn oil to a final concentration of 2 mg/ml. […] Control groups were challenged with elastase and 21 days later treated with Vehicle (DMSO/PBS) for 14 days. Animals were sacrificed 24 hours after the last dose of by exsanguination under deep anesthesia. Blood was collected at time of exanguination for analysis of changes in blood chemistry from respective treatments. The lungs were inflated with 10% neutral buffered formalin by intratracheal instillation at a constant rate (1 ml/gram body mass/min). The lung was excised and immersed in fixative for 24 hours prior to processing. Standard methods were used to prepare 5 um paraffin sections. Sections were stained with Hematoxylin and Eosin (H%E). Computerized Morphometric analysis was performed to determine the average alveolar size and alveolar number.

CCCCCCc1cc2c(cc1/C=C/c1ccc(C(=O)O)cc1)C(C)(C)CCC2(C)C [RAR Agonist 3]
% Repair (experimental emphysema): 73.7%
IC50 (RARα): 2700 nM
IC50 (RARβ): 3000 nM
% Repair ([1]; 0.5 mg/kg ip once daily, from 21 days post injury, 14 days): > 70%
Alveolar Area ([1]; 0.5 mg/kg ip once daily, from 21 days post injury, 14 days, naive 1637 +/- 153, elastase + vehicle 3570 +/- 319): 1929 +/- 150
alveolar repair (in words) ([1]; elastase-treated rats, 0.5 mg/kg ip): markedly induce alveolar repair
light micrographs of lung sections (in words) ([1]; rat lung damaged by elastase and then treated, compared to normal rat lung): showed alveolar area similar to the normal rat lung
